From ChEMBL document CHEMBL1142639, “New triterpenoid saponins from the sponge Melophlus isis” (2000)
Values after ≈ are worked out from the molar mass of the structure shown. Active and inactive are the calls of the source. No cut-off for these calls is given here.

Columns and labels:
K562 = test: Cytotoxicity against human K562 cells; format: functional; settings: read-out: LC50 (the source's name)
Vibrio harveyi = test: Antibacterial activity against Vibrio harveyi at 100 ug/mL by paper disk method; format: functional, organism-based
[1] = system: Photobacterium phosphoreum; test: Antibacterial activity against Photobacterium phosphoreum at 100 ug/mL by paper disk method; format: functional, organism-based
[2] = system: Photobacterium leiognathi; test: Antibacterial activity against Photobacterium leiognathi at 100 ug/mL by paper disk method; format: functional, organism-based

| SMILES | CC50 (K562) [µg/mL] | Activity (Vibrio harveyi) | Activity [1] | Activity [2] | A ctivity [2] |
| --- | --- | --- | --- | --- | --- |
| CC(=O)N[C@H]1[C@H](O[C@@H]2CO[C@@H](O[C@H]3CC[C@]4(C)C5=C(CC[C@H]4C3(C)C)[C@@H]3CC[C@H]([C@H](C)CC(=O)C=C(C)C)[C@@]3(C)CC5)[C@H](O[C@@H]3O[C@H](CO[C@@H]4O[C@H](CO)[C@@H](O)[C@H](O)[C@H]4O[C@@H]4O[C@H](CO)[C@@H](O)[C@H](O)[C@H]4O)[C@@H](O)[C@H](O)[C@H]3NC(C)=O)[C@H]2O)O[C@H](CO)[C@H](O)[C@@H]1O [SARASINOSIDE A1] | 6.5 (≈ 5.04 µM) | – | – | – | – |
| CC(=O)N[C@H]1[C@H](O[C@@H]2CO[C@@H](O[C@H]3CC[C@]4(C)C5=C(CC[C@H]4C3(C)C)C3=CC[C@H]([C@H](C)CC(=O)C=C(C)C)[C@@]3(C)CC5)[C@H](O[C@@H]3O[C@H](CO[C@@H]4O[C@H](CO)[C@@H](O)[C@H](O)[C@H]4O[C@@H]4O[C@H](CO)[C@@H](O)[C@H](O)[C@H]4O)[C@@H](O)[C@H](O)[C@H]3NC(C)=O)[C@H]2O)O[C@H](CO)[C@H](O)[C@@H]1O [SARASINOSIDE A3] | 17.1 (≈ 13.3 µM) | – | – | – | – |
| CC(=O)N[C@H]1[C@H](O[C@@H]2CO[C@@H](O[C@H]3CC[C@@]4(C)[C@@H](CCC5=C6[C@H](O)C[C@H]([C@H](C)CC(=O)C=C(C)C)[C@@]6(C)CC[C@@]54O)C3(C)C)[C@H](O[C@@H]3O[C@H](CO[C@@H]4O[C@H](CO)[C@@H](O)[C@H](O)[C@H]4O[C@@H]4O[C@H](CO)[C@@H](O)[C@H](O)[C@H]4O)[C@@H](O)[C@H](O)[C@H]3NC(C)=O)[C@H]2O)O[C@H](CO)[C@H](O)[C@@H]1O [SARASINOSIDE H1] | > 100 | inactive | inactive | inactive | – |
| CO[C@@H]1C[C@H]([C@H](C)CC(=O)C=C(C)C)[C@@]2(C)CC[C@@]3(O)C(=C12)CC[C@H]1C(C)(C)[C@@H](O[C@@H]2OC[C@@H](O[C@@H]4O[C@H](CO)[C@H](O)[C@H](O)[C@H]4NC(C)=O)[C@H](O)[C@H]2O[C@@H]2O[C@H](CO[C@@H]4O[C@H](CO)[C@@H](O)[C@H](O)[C@H]4O[C@@H]4O[C@H](CO)[C@@H](O)[C@H](O)[C@H]4O)[C@@H](O)[C@H](O)[C@H]2NC(C)=O)CC[C@@]13C [SARASINOSIDE H2] | > 100 | inactive | inactive | inactive | – |
| CC(=O)N[C@H]1[C@H](O[C@@H]2CO[C@@H](O[C@H]3CC[C@@]4(C)[C@@H](CCC5=C6[C@@H](O)C[C@H]([C@H](C)CC(=O)C=C(C)C)[C@@]6(C)CC[C@@]54O)C3(C)C)[C@H](O[C@@H]3O[C@H](CO[C@@H]4O[C@H](CO)[C@@H](O)[C@H](O)[C@H]4O[C@@H]4O[C@H](CO)[C@@H](O)[C@H](O)[C@H]4O)[C@@H](O)[C@H](O)[C@H]3NC(C)=O)[C@H]2O)O[C@H](CO)[C@H](O)[C@@H]1O [SARASINOSIDE I1] | > 100 | inactive | inactive | – | inactive |
| CO[C@H]1C[C@H]([C@H](C)CC(=O)C=C(C)C)[C@@]2(C)CC[C@@]3(O)C(=C12)CC[C@H]1C(C)(C)[C@@H](O[C@@H]2OC[C@@H](O[C@@H]4O[C@H](CO)[C@H](O)[C@H](O)[C@H]4NC(C)=O)[C@H](O)[C@H]2O[C@@H]2O[C@H](CO[C@@H]4O[C@H](CO)[C@@H](O)[C@H](O)[C@H]4O[C@@H]4O[C@H](CO)[C@@H](O)[C@H](O)[C@H]4O)[C@@H](O)[C@H](O)[C@H]2NC(C)=O)CC[C@@]13C [SARASINOSIDE I2] | > 100 | inactive | inactive | inactive | – |
